# Legend:
# human ETA = biological target: T1, human ETA (Homo sapiens, UniProt P25101); assay: Competition binding of [125I] ET-1 to CHO-ETA membranes; conditions: [125I] ET-1, 2 hours at 37° C.
# T1 construct: expressed in transfected cells; host or cells: CHO (Chinese hamster ovary) cells, membrane preparation
# T1 sequence (P25101 21-427): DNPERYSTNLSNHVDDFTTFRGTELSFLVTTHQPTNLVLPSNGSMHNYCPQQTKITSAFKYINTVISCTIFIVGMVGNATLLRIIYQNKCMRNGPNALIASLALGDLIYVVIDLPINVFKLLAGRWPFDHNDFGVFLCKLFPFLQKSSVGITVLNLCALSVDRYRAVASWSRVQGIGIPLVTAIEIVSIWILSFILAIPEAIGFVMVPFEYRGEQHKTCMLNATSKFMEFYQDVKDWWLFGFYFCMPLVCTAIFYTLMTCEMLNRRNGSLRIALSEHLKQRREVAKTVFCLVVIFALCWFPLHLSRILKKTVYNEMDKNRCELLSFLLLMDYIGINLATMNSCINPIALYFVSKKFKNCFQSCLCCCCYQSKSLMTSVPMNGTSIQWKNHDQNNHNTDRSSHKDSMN
# Protocol: (§1) 1. Binding Studies--ETA and ETB ;
# (§2) Chinese hamster ovary cells expressing human ETA (CHO-ETA) or ETB (CHO-ETB) receptors are cultured in F12 medium (cibcoBRL, Grand Island, N.Y.) containing 10% fetal bovine serum and 1× antibiotic-antimycotic (GibcoBRL). Cells are harvested, then centrifuged, and finally homogenized in buffer containing 1 mM EDTA and […] Tris, pH 8.0. The cell debris is removed by brief centrifugation, and then the supernatant centrifuged again at 50,000×g for 10 minutes. The resulting pellet is resuspended in Hanks' balanced salt solution at a protein concentration of […] and stored in aliquots at -80° C. Competition binding is carried out by in incubating 0.2-1.0 mg of membrane protein from CHO-ETA or CHO-ETB cells with 12,000 cpm [^125 I] ET-1 (New England Nuclear, Boston, Mass.) with or without the competing ligand for 2 hours at 37° C. in a buffer containing 0.2 mg/ml bovine serum albumin, 0.002% Triton X-100, 0.02% NaN3, and […] Tris, pH 7.0. The reaction is terminated by filtration through a cell harvester (Brandel, Gaitherburg, Md.) using GF/C filters. Triplicate samples are carried out in each experiment, and if appropriate, the full dose-response curve for each competing ligand is performed at least three times. […]
# human ETB = biological target: T2, human ETB (Homo sapiens, UniProt P24530); assay: Competition binding of [125I] ET-1 to CHO-ETB membranes; conditions: [125I] ET-1, 2 hours at 37° C.
# T2 construct: expressed in transfected cells; host or cells: CHO (Chinese hamster ovary) cells, membrane preparation
# T2 sequence (P24530 27-442): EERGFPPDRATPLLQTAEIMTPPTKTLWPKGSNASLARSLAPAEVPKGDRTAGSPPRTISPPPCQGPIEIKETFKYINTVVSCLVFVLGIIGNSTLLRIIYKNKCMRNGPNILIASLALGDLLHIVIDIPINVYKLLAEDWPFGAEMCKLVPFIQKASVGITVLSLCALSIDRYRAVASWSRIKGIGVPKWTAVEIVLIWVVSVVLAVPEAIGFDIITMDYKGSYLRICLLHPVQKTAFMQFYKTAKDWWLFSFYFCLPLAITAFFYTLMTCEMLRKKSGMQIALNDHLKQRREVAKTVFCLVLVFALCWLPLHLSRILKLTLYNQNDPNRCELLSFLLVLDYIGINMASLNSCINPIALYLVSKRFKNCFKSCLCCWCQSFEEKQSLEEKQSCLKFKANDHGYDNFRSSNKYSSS
# Protocol: as §1, §2
# ETB = biological target: T3, ETB (Canis lupus familiaris, UniProt P56497); assay: Isolated tissue study, isometric tension, dog saphenous veins; set-up: species or system mongrel dogs; conditions: antagonist added 30 minutes prior to ET-1 or STX6c
# T3 construct: from tissue; host or cells: saphenous vein segments from mongrel dogs
# T3 sequence (P56497 27-442): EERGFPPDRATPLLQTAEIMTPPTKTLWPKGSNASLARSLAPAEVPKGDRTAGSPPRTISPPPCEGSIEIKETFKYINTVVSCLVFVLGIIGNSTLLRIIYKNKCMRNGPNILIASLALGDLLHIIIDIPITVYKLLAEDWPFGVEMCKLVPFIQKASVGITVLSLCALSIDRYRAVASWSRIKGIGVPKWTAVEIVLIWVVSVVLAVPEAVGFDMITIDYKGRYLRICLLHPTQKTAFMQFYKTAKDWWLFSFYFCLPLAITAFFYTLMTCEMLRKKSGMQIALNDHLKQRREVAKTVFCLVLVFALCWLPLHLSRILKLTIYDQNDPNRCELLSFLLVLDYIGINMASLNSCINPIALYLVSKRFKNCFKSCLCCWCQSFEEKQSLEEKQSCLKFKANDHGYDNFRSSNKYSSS
# Protocol: (§3) 2. Isolated Tissue Studies
# (§4) Studies measuring isometric tension are carried out according to the procedure of Shetty et al. (Biochem. Biophys. Res. Comm. 1993; 191:459-464). Saphenous veins (for antagonism of ETB) are obtained from mongrel dogs which are anesthetized with pentobarbital. Thoracic aortas are obtained from Sprague-Dawley male rats (for antagonism of ETA). Coronary arteries are obtained from porcine hearts. Tissue segments (4-5 mm) from each vascular preparation are equilibrated for 90 minutes during which time the tissues are adjusted to a preload tension of 2 gm, except for the porcine coronary which is adjusted to 4 gm preload. Concentration-response curves are generated by the cumulative addition of the peptides. Antagonists are added 30 minutes prior to the addition of ET-1 or STX6c. Contractions are expressed as a percentage of the response to […] KCl. Relaxation is quantitated by expressing the tension after relaxation as a percent of the tension induced by 1 mM phenylephrine.
# ETA = biological target: T4, ETA (Rattus norvegicus, UniProt P26684); assay: Isolated tissue study, isometric tension, thoracic aorta; set-up: species or system Sprague-Dawley male rats; conditions: antagonist added 30 minutes prior to ET-1 or STX6c
# T4 construct: from tissue; host or cells: thoracic aorta segments from Sprague-Dawley male rats
# T4 sequence (P26684 21-426): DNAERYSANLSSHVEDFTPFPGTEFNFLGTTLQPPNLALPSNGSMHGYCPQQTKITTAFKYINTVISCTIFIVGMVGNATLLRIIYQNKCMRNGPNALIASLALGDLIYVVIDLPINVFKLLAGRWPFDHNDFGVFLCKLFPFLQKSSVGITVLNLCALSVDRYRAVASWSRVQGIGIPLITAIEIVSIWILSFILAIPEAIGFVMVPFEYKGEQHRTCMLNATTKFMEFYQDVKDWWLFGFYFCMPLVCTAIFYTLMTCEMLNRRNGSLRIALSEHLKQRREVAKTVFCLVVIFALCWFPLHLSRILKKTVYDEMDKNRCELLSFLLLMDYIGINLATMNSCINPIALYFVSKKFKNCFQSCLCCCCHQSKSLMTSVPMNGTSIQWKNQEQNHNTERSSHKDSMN
# Protocol: as §3, §4
smiles,measurement,setting,value
"CCCCS(=O)(=O)NC(=O)C1(NC(=O)[C@@H](Cc2ccc(-n3cccc3)cc2)N(C)C(=O)c2cc(C)cc(C)c2)CC1 [example 1, R-N-[N-3,5-dimethylbenzoyl-N-methyl-3-[4-(1-pyrrolyl)phenyl]alanyl]-1-aminocyclo propane-1-N-(n-butanesulfonyl)carboxamide]",IC50,human ETA,< 1 nM
same,IC50,human ETB,< 1 nM
same,ET-induced contractile response in dog saphenous veins,ETB,inhibit ET-induced contractile response
same,ET-induced contractile response in thoracic aorta,ETA,inhibit ET-induced contractile response
